Results reported in paper PMC7363588, “Mapping of the FGF14:Nav1.6 complex interface reveals FLPK as a functionally active peptide modulating excitability” (Physiological Reports, 2020).
Entries after “also recorded” stand apart in the source; their conditions may differ. Peptide text beside a SMILES is read from it.

System: medium spiny neurons (MSNs) in the nucleus accumbens
Experiment: Brain slice patch-clamp: intrinsic excitability and passive properties of MSNs
Assay type: cell-based, male C57BL6/J mice
Protocol: Brain slices from male C57BL6/J mice aged 28–45 days were prepared to contain the nucleus accumbens (NAc). Mice were anesthetized with Isoflurane (Baxter, Deerfield, IL) and brains extracted following decapitation. Brains were sliced with a vibratome (Leica Microsystems, Wetzlar, Germany) to achieve 300 μm coronal slices. Brains sliced in extracellular salts; consisting of the following (mM): Tris‐HCl 72, Tris‐Base18, NaH2PO4 1.2, KCl 2.5, HEPES 20, sucrose 20, NaHCO3 25, glucose 25, MgSO4 10, Na‐pyruvate 3, Na‐ascorbate 5 and CaCl2 0.5 (Sigma‐Aldrich, St. Louis, MO); 300–310 mOsm, pH 7.4 and was continuously oxygenated (mixture of 95%/5% O2/CO2). Slices were then placed in a 32°C recovery chamber with freshly prepared tris‐based aCSF for 15 min before transfer to a 32°C chamber of standard aCSF consisting of the following extracellular salts (mM): NaCl 123.9, KCl 3.1, glucose 10, MgCl2 1, CaCl2 2, NaHCO3 24, and NaH2PO4 1.16 (Sigma‐Aldrich, St. Louis, MO); 300–310 mOsm, pH 7.4 and continuously oxygenated (mixture of 95%/5% O2/CO2). Finally, slices were equilibrated at RT for at least 45 min. DMSO and/or FLPK were added to standard aCSF to achieve a bath concentration of 0.1% DMSO and 50 μM FLPK. Brain slices were incubated in a separate chamber with standard aCSF containing 0.1% DMSO (control) or 50 μM FLPK and continuously oxygenated for 30 min. Somatic recordings from NAc visually identified medium spiny neurons (MSNs) in standard aCSF were carried out at 31°C using borosilicate glass pipettes (resistance of 3–5 MΩ) filled with an internal solution containing (mM): D‐gluconate (potassium salt) 145, MgCl2 2, EGTA 0.1, Na2ATP 2, and HEPES 10 (pH 7.2; 290 mOsm). Either an Axopatch 200B or a Multiclamp 700B amplifier was used to perform whole‐cell patch clamp experiments. For the Axopatch 200B, a digidata 1,200 analog–digital interface and pClamp 9 software with filtering at 20 kHz and digitizing at 5 kHz were used for data acquisition and stimulation. For the Multiclamp 700B, a digidata 1,350 analog‐digital interface and pClamp 10.9 with filtering at 20 kHz and digitizing at 5 kHz were used for data acquisition and stimulation. First a giga‐seal was formed and the cell membrane ruptured after which MSNs were held in […] for 1 min to measure resting membrane potential. Next, MSNs were held in current clamp mode to assess cell activity. Evoked action potentials with a range of current injections from 10 pA to 220 pA with 800 ms every 10 pA were measured and number of action potentials, instantaneous frequency, and other electrical parameters were determined. Average instantaneous firing frequency (IFF) is defined as the average of all reciprocal interspike intervals (ms) at a particular current step. Cells with a current threshold above 180 pA, a resting membrane potential above −60 mV, and an input resistance outside the range of 70–250 MΩ were excluded. To isolate persistent Na^+ current (I NaP) in whole‐cell voltage‐clamp recordings, we used a modified aCSF containing 20 mM tetraethylammonium chloride (TEA) and 0.3 mM CdCl2. The voltage‐dependence of I NaP was determined using standard protocols (Yue, Remy, Su, Beck, & Yaari, 2005). Membrane capacitances and Rseries were compensated electronically. Series resistances (Rs) before compensation were in the range of 5–20 MΩ and were routinely corrected by 75%–85%. Data obtained from a given cell were rejected if Rs was larger than 20 MΩ or changed by > 20% during the course of the experiment. Membrane capacitance was calculated using the equation: capacitance = membrane time constant/input resistance (Meitzen, Weaver, Brenowitz, & Perkel, 2009). The membrane input resistance was measured by a series of 600 ms hyperpolarizing current steps from −50 to 0 pA, step 10 pA with 1 s interval. The slope of the current‐voltage curve was designated as the membrane input resistance. […]

## CC(=O)N[C@@H](Cc1ccccc1)C(=O)N[C@@H](CC(C)C)C(=O)N1CCC[C@H]1C(=O)N[C@@H](CCCCN)C(N)=O [FLPK] (Ac-FLPK-NH2)
50 µM FLPK vs 0.1% DMSO
  effect on MSN firing and passive properties: significantly increased the number of evoked action potentials and the instantaneous firing frequency; also recorded: no changes in several other electrophysiological parameters including membrane potential and input resistance; also recorded: increase in the total number of action potentials as well as instantaneous firing frequency
50 µM FLPK, 30 min incubation, mean ± SEM, n = 5–12, DMSO 16.1 ± 2.1, p = .157
  Tau (τ), membrane time constant: 11.9 ± 1.6 ms
50 µM FLPK, 30 min incubation, mean ± SEM, n = 5–12, DMSO 90.2 ± 14.5, p = .521
  Cm: 80.1 ± 7.6 pF
50 µM FLPK, 30 min incubation, mean ± SEM, n = 5–12, DMSO 110 ± 14.2, p = .221
  Ithr: 78 ± 18.3 pA
50 µM FLPK, 30 min incubation, mean ± SEM, n = 5–12, DMSO 119.1 ± 10.3, p = .088
  Rin: 147.2 ± 11.3 MΩ
50 µM FLPK, 30 min incubation, mean ± SEM, n = 5–12, DMSO −40.5 ± 1.1, p = .422
  Vthr: −38.7 ± 2.2 mV
50 µM FLPK, 30 min incubation, mean ± SEM, n = 5–12, DMSO −75.3 ± 1.5, p = .125
  RMP: −79.7 ± 2.6 mV
50 µM FLPK, current step 180 pA, n = 7, DMSO 14.9 ± 2.3, n = 14, p < .016
  number of evoked action potentials: 23.7 ± 1.2
50 µM FLPK, current step 180 pA, n = 7, DMSO 19.7 ± 2.6 Hz, n = 14, p < .0395
  instantaneous firing frequency: 28.6 ± 2.1 Hz
